Measurements from patent US20070122830A1, “Prohibitin-directed diagnostics and therapeutics for cancer and chemotherapeutic drug resistance” (Aurelium BioPharma Inc., priority 2005, published 2007).
Where two headings read alike, the source gives them in different places.

How the values were obtained:
Assay type in all cases: cell-based, human
[1] = test system: MDA Breast Cancer Cell Line; assay: MTT cytotoxicity assay, transfected MDA cells plus chemotherapeutic drug; conditions: for EC50 / fold change of EC50, Prohibitin vs Control / IC50: MDA cells; for sensitivity to drug of prohibitin siRNA treated cells compared to mock-treated cells / sensitivity to drug of prohibitin siRNA treated cells compared to controls / sensitivity to drug of prohibitin siRNA treated cells compared to mock controls: MDA; for sensitivity to drug of prohibitin siRNA treated cells compared to mock-treated cells: FIG. 9A-9H; for IC50: Homo sapiens
Method: (§1) For a typical siRNA transfection, 1 nmole of the annealed siRNA duplex was mixed with 1.4 ml of Opti-MEM reagent (Invitrogen). In another tube, […] of Oligofectamine reagent (Invitrogen, Carlsbad, Calif.) was mixed with […] of Opti-MEM. The two solutions were combined and mixed gently by inversion and incubated for 20 min. at RT. The resulting solution was added to the cultured cells drop by drop in a 10 cm dish (cells are approximately 40-50% confluent). The next day the transfected cells were trypsinized and seeded in 6 or 96-well plates and further incubated for the indicated amount of time (assay dependent) before further analysis.
(§2) RNA-transfected cells were seeded in triplicate into 96-well plates at 5×10^3 cells/well 48 hrs post-transfection. The cells were incubated for an additional 16 to 24 hrs before they were exposed to increasing concentrations of cytotoxic drugs. […] Appropriate dilutions were made in the respective media for each cell line. Following addition of drugs, incubation was continued for an additional 72 hrs. […] of MTT dye (5 mg/ml) were added into each well and the plate was further incubated at 37° C. for 4 hrs. The dye was solubilized with 10% Triton X-100, 0.01 N HCl and further incubated at 37° C. in the dark for 30 min. Cell viability was determined by measure of absorption at 570 nm in a Wallac multiwell plate reader (PerkinElmer, Inc., Boston, Mass.). The averages of triplicate wells were plotted using the Prism software (GraphPad Software, Inc., San Diego, Calif.).

[2] = test system: MCF-7 Breast Cancer Cell Line; assay: MTT cytotoxicity assay, transfected MCF-7 cells plus chemotherapeutic drug; conditions: for fold change of EC50, Prohibitin vs Control: direction IS/IR in same cell (E42); for sensitivity to drug of prohibitin siRNA treated cells: MCF-7, FIGS. 15A-15H
Method: as §1
as §2, with “Cell survival was determined using the MTT cytotoxicity assay (see, e.g., Tokuyama et al. (2005) Anticancer Res. 25(1A): 17-22). RNA-transfected” for “RNA-transfected”, “drugs. Doxorubicin (adriamycin), cisplatinum, taxol, vinblastin, vincristin, and mitoxantrone were all purchased from Sigma Corp. (St. Louis, Mo.).” for “drugs.”
Cell survival was determined as described in Example 3 above.

[3] = test system: SKOV3 Ovarian Cancer Cell Line; assay: MTT cytotoxicity assay, transfected SKOV3 cells plus chemotherapeutic drug; conditions: for EC50 / fold change of EC50, Prohibitin vs Control: SKOV3 cells; for fold change of EC50, Prohibitin vs Control: direction IS/IR in same cell (E54); for IC50: Homo sapiens, SK-OV-3, SKOV3 cells
Method: as §1, §2
Each table summarizes the results of an individual experiment performed in triplicate.

[4] = mock-transfected control, Table 3 experiment, read-out: EC50, Control
[5] = mock-transfected control, Table 4 experiment, read-out: EC50, Control
[6] = mock-transfected control, Table 5 experiment, read-out: EC50, Control
[7] = mock-transfected control, Table 6 experiment, read-out: EC50, Control
[8] = mock-transfected control, Table 7 experiment, read-out: EC50, Control
[9] = mock-transfected control, Table 8 experiment, read-out: EC50, Control
[10] = prohibitin (siRNA) transfected, Table 3 experiment, read-out: EC50, Prohibitin
[11] = prohibitin (siRNA) transfected, Table 4 experiment, read-out: EC50, Prohibitin
[12] = prohibitin (siRNA) transfected, Table 5 experiment, read-out: EC50, Prohibitin
[13] = prohibitin (siRNA) transfected, Table 6 experiment, read-out: EC50, Prohibitin
[14] = prohibitin (siRNA) transfected, Table 7 experiment, read-out: EC50, Prohibitin
[15] = prohibitin (siRNA) transfected, Table 8 experiment, read-out: EC50, Prohibitin
[16] = Table 3 experiment, direction IS/IR in same cell (E6)
[17] = Table 4 experiment, direction IS/IR in same cell (E12)
[18] = Table 6 experiment, direction IS/IR in same cell (E24)
[19] = Table 7 experiment, direction IS/IR in same cell (E30)
[20] = Table 8 experiment, direction IS/IR in same cell (E36)
[21] = MCF-7 cells, prohibitin (siRNA) transfected, Table 9, read-out: EC50, Prohibitin
[22] = mock-transfected control, Table 10 experiment, read-out: EC50, Control
[23] = mock-transfected control, Table 11 experiment, read-out: EC50, Control
[24] = prohibitin (siRNA) transfected, Table 10 experiment, read-out: EC50, Prohibitin
[25] = prohibitin (siRNA) transfected, Table 11 experiment, read-out: EC50, Prohibitin
[26] = Homo sapiens, MCF7, MCF-7 cells, prohibitin (siRNA) transfected, Table 9, read-out: EC50, Prohibitin

Row | SMILES | EC50 [1, 10] | EC50 [1, 11] | EC50 [1, 12] | EC50 [1, 15] | fold change of EC50, Prohibitin vs Control [1, 16] | fold change of EC50, Prohibitin vs Control [1, 17] | sensitivity to drug of prohibitin siRNA treated cells compared to mock-treated cells [1] | sensitivity to drug of prohibitin siRNA treated cells compared to controls ([1]; FIGS. 10A-10H) | sensitivity to drug of prohibitin siRNA treated cells compared to mock controls ([1]; FIGS. 13A-13H) | EC50 [2, 21] | fold change of EC50, Prohibitin vs Control ([2]; MCF-7 cells, Table 9) | EC50 [3, 24] | EC50 [3, 25] | sensitivity to drug of prohibitin siRNA treated cells [2] | IC50 [1, 4] | IC50 [1, 5] | IC50 [1, 8] | IC50 [1, 9] | IC50 [3, 22] | IC50 [3, 23] | further results
1 | N.N.[Cl][Pt][Cl] [Cisplatinum] | 189 µM | 271 µM | 124 µM | 57 µM | 1.2 x | 1.4 x | increased sensitivity | more sensitive | increased sensitivity | 151 µM | 1.3 x | 26.3 µM | 68.8 µM |  |  |  |  |  |  |  | EC50 [1, 4]: 255 µM; EC50 [1, 5]: 374 µM; EC50 [1, 6]: 94.3 µM; EC50 [1, 7]: 164 µM; EC50 [1, 8]: 76.8 µM; EC50 [1, 9]: 29.3 µM; EC50 [1, 13]: 189 µM; EC50 [1, 14]: 54.5 µM; fold change of EC50, Prohibitin vs Control ([1]; Table 5 experiment, direction IS/IR in same cell (E18)): 1.3 x; fold change of EC50, Prohibitin vs Control [1, 18]: 1.1 x; fold change of EC50, Prohibitin vs Control [1, 19]: 1.4 x; fold change of EC50, Prohibitin vs Control [1, 20]: 1.9 x; EC50 ([2]; MCF-7 cells, mock-transfected control, Table 9, read-out: EC50, Control): 118 µM; change in sensitivity to the drug, Prohibitin vs Control ([2]; MCF-7 cells, Table 9): IR (IR: “increased in resistance” to the drug); EC50 [3, 22]: 22.4 µM; EC50 [3, 23]: 50 µM; fold change of EC50, Prohibitin vs Control ([3]; Table 11 experiment): 1.4 x
2 | CC(=O)O[C@@]12CO[C@@H]1C[C@H](O)[C@@]1(C)C(=O)[C@H](O)C3=C(C)[C@@H](OC(=O)[C@H](O)[C@@H](NC(=O)OC(C)(C)C)c4ccccc4)C[C@@](O)([C@@H](OC(=O)c4ccccc4)[C@H]21)C3(C)C [Docetaxel] |  |  |  |  |  |  |  |  |  | 0.00534 µM | 13.8 x |  |  | more sensitive |  |  |  |  |  |  | 
3 | COc1cccc2c1C(=O)c1c(O)c3c(c(O)c1C2=O)C[C@@](O)(C(=O)CO)C[C@@H]3O[C@H]1C[C@H](N)[C@H](O)[C@H](C)O1 [Doxorubicin] | 0.00173 µM | 0.00125 µM | 0.000993 µM | 0.000139 µM |  |  |  |  | increased sensitivity | 0.03 µM |  | 0.0128 µM | 1.23e-05 µM | more sensitive | 0.00146 µM | 0.000873 µM | 0.000232 µM | 0.000177 µM | 0.0213 µM | 2.65e-05 µM | IC50 [1, 6]: 0.00175 µM; IC50 [1, 7]: 0.00225 µM; EC50 [1, 13]: 0.00172 µM; sensitivity to drug of prohibitin siRNA treated cells compared to controls ([1]; FIG. 11A): increased sensitivity; sensitivity to drug of prohibitin siRNA treated cells compared to mock controls ([1]; FIGS. 14A-14H): more sensitive
4 | COc1cc([C@@H]2c3cc4c(cc3[C@@H](O[C@@H]3O[C@@H]5CO[C@@H](C)O[C@H]5[C@H](O)[C@H]3O)[C@H]3COC(=O)[C@H]23)OCO4)cc(OC)c1O [Etoposide] |  |  |  |  |  | 1.3 x |  | more sensitive |  |  | 2.2 x | 0.611 µM | 0.241 µM | more sensitive | 78.9 µM | 83.9 µM | 9.56 µM | 9.31 µM | 0.621 µM | 0.148 µM | IC50 [1, 10]: 76.5 µM; IC50 [1, 11]: 63 µM; IC50 [1, 14]: 10 µM; IC50 [1, 15]: 9.64 µM; EC50 [2, 26]: 7.28 µM
5 | N[C@@H](Cc1ccc(N(CCCl)CCCl)cc1)C(=O)O [Melphalan] | 39.1 µM | 41 µM |  | 19.1 µM | 1.5 x | 1.1 x | increased sensitivity |  |  |  | 1.4 x | 4.54 µM | 4.57 µM | more sensitive | 60.1 µM | 36.1 µM | 24.9 µM | 35.4 µM | 5.79 µM | 5.95 µM | EC50 [1, 14]: 23.9 µM; fold change of EC50, Prohibitin vs Control [1, 20]: 1.8 x; sensitivity to drug of prohibitin siRNA treated cells compared to mock controls ([1]; FIGS. 14A-14H): more sensitive; EC50 ([2]; Homo sapiens, MCF7, MCF-7 cells, mock-transfected control, Table 9, read-out: EC50, Control): 14.7 µM; EC50 [2, 26]: 10.5 µM; fold change of EC50, Prohibitin vs Control ([3]; Table 11 experiment): 1.3 x
6 | S=P(N1CC1)(N1CC1)N1CC1 [Thiotepa] |  |  |  |  | 1.3 x | 1.7 x | increased sensitivity | more sensitive | increased the sensitivity |  |  | 24.9 µM | 13.9 µM |  | 600 µM | 510 µM | 146 µM | 159 µM | 35 µM | 16.5 µM | IC50 [1, 7]: 628 µM; IC50 [1, 10]: 475 µM; IC50 [1, 11]: 291 µM; IC50 [1, 13]: 527 µM; IC50 [1, 14]: 97.1 µM; IC50 [1, 15]: 164 µM; fold change of EC50, Prohibitin vs Control [1, 18]: 1.2 x; fold change of EC50, Prohibitin vs Control [1, 19]: 1.5 x; sensitivity to drug of prohibitin siRNA treated cells compared to mock controls ([1]; FIGS. 12A-12D): increased sensitivity; fold change of EC50, Prohibitin vs Control ([3]; Table 11 experiment): 1.2 x
7 | CC[C@]1(O)C[C@@H]2CN(CCc3c([nH]c4ccccc34)[C@@](C(=O)OC)(c3cc4c(cc3OC)N(C)[C@H]3[C@@](O)(C(=O)OC)[C@H](OC(C)=O)[C@]5(CC)C=CCN6CC[C@]43[C@@H]65)C2)C1 [Vinblastin] |  |  | 2.55 µM |  |  |  |  |  |  |  |  |  |  |  |  |  |  |  |  |  | EC50 [1, 6]: 0.157 µM
